Data taken from patent US12486489B2, “Culture medium for testing drug resistance of H.pylori as well as preparation method and use thereof” (priority 2022, dated 2025).
Where two headings read alike, the source gives them in different places.

Assays:
H. pylori [1] = assay: MIC of laboratory H. pylori strains by micro dilution method; format: cell-based; settings: Helicobacter pylori
H. pylori [2] = assay: Verification of resistance breakpoint: growth of laboratory strains on Columbia solid culture medium with added antibiotics, 72 hours; format: cell-based, Helicobacter pylori
[3] = system: clinical H. pylori strain; assay: MIC of clinical H. pylori strains by micro dilution method; format: cell-based; settings: Helicobacter pylori, 72 h, approximately 1.0×10^6 CFU/mL per well, 72 hours, read-out: MIC
H. pylori [4] = settings: bacterial count 1×10^6 CFU/mL; cited from earlier work
H. pylori [5] = assay: Drug resistance testing of laboratory strains on characteristic culture medium (discoloration after 36 hours); format: cell-based, Helicobacter pylori
Description: The characteristic culture media (A, B, C, D, E) are cultivated at a constant temperature of 37° C. for 36 hours in a three gas incubator. The characteristic culture media are removed and placed in a natural environment for 30 minutes to observe whether there are discolorations at the point of the culture medium where the specimen is dropped in. […] Another 100 μL of the specimen is taken and coated on Columbia solid culture medium and cultivated in a three gas incubator at a constant temperature of 37° C. for 3 days to 5 days. The number of colonies on the plate is counted to determine the initial inoculation amount. The micro dilution method is adopted to test the MIC of clinical specimen H. pylori, the test is meaningful only when there is no bacterial growth in the negative control well without bacteria and there is bacterial growth in the positive well with bacteria but without antibiotics. […] The results are recorded and whether the micro dilution method and characteristic culture medium are consistent with each other in evaluating the drug resistance of clinical H. pylori strains is compared. […]
(2) Inoculation of bacterial solution: 10 μL bacterial solution is taken and added dropwise onto a characteristic culture medium with 5 pieces (ABCDE) in total.
(3) Culture: all plates are moved to a three gas incubator and cultivated at 37° C. for 36 hours. After being taken out and placed in a natural environment for 30 minutes, whether the bacteria have resistance is determined based on the discoloration of the characteristic culture medium.

Cc1ncc([N+](=O)[O-])n1CCO [Metronidazole, metronidazole]
MIC (H. pylori [1]; read-out: MICs, standard sensitive strains G27 and 26695, bacterial count 1×10^6 CFU/mL): 0.25 µg/mL | MIC (H. pylori [1]; read-out: minimum inhibitory concentration (MIC), strain 159, bacterial count 10^6 CFU/mL (first line of the strain)): 4 µg/mL | MIC (H. pylori [1]; read-out: minimum inhibitory concentration (MIC), strain 159, bacterial count 10^6 CFU/mL (second line of the strain)): 2 µg/mL | MIC (H. pylori [1]; read-out: minimum inhibitory concentration (MIC), strain 161, bacterial count 10^4 CFU/mL): 1 µg/mL | MIC (H. pylori [1]; read-out: minimum inhibitory concentration (MIC), strain 161, bacterial count 10^6 CFU/mL (first line of the strain)): 4 µg/mL | MIC (H. pylori [1]; read-out: minimum inhibitory concentration (MIC), strain 161, bacterial count 10^6 CFU/mL (second line of the strain)): 2 µg/mL | MIC (H. pylori [1]; read-out: minimum inhibitory concentration (MIC), strain 162, bacterial count 10^6 CFU/mL (first line of the strain)): 2 µg/mL | MIC (H. pylori [1]; read-out: minimum inhibitory concentration (MIC), strain 162, bacterial count 10^6 CFU/mL (second line of the strain)): 1 µg/mL | MIC (H. pylori [1]; read-out: minimum inhibitory concentration (MIC), strain 163, bacterial count 10^4 CFU/mL): 2 µg/mL | MIC (H. pylori [1]; read-out: minimum inhibitory concentration (MIC), strain 163, bacterial count 10^6 CFU/mL (first line of the strain)): 16 µg/mL | MIC (H. pylori [1]; read-out: minimum inhibitory concentration (MIC), strain 163, bacterial count 10^6 CFU/mL (second line of the strain)): 4 µg/mL | MIC (H. pylori [1]; read-out: minimum inhibitory concentration (MIC), strain 286, bacterial count 10^4 CFU/mL): 4 µg/mL | MIC (H. pylori [1]; read-out: minimum inhibitory concentration (MIC), strain 286, bacterial count 10^6 CFU/mL (first line of the strain)): 32 µg/mL | MIC (H. pylori [1]; read-out: minimum inhibitory concentration (MIC), strain 286, bacterial count 10^6 CFU/mL (second line of the strain)): 16 µg/mL | MIC (H. pylori [1]; read-out: minimum inhibitory concentration (MIC), strain 287, bacterial count 10^4 CFU/mL): 8 µg/mL | MIC (H. pylori [1]; read-out: minimum inhibitory concentration (MIC), strain 287, bacterial count 10^6 CFU/mL (first line of the strain)): 32 µg/mL | MIC (H. pylori [1]; read-out: minimum inhibitory concentration (MIC), strain 287, bacterial count 10^6 CFU/mL (second line of the strain)): 16 µg/mL | MIC (H. pylori [1]; read-out: minimum inhibitory concentration (MIC), strain 289, bacterial count 10^4 CFU/mL): 8 µg/mL | MIC (H. pylori [1]; read-out: minimum inhibitory concentration (MIC), strain 289, bacterial count 10^6 CFU/mL (first line of the strain)): 32 µg/mL | MIC (H. pylori [1]; read-out: minimum inhibitory concentration (MIC), strain 289, bacterial count 10^6 CFU/mL (second line of the strain)): 16 µg/mL | MIC (H. pylori [1]; read-out: minimum inhibitory concentration (MIC), strain 290, bacterial count 10^4 CFU/mL): 4 µg/mL | MIC (H. pylori [1]; read-out: minimum inhibitory concentration (MIC), strain 290, bacterial count 10^6 CFU/mL (first line of the strain)): 32 µg/mL | MIC (H. pylori [1]; read-out: minimum inhibitory concentration (MIC), strain 290, bacterial count 10^6 CFU/mL (second line of the strain)): 16 µg/mL | MIC (H. pylori [1]; read-out: minimum inhibitory concentration (MIC), strain 26695, bacterial count 10^6 CFU/mL (second line of the strain)): 0.25 µg/mL | MIC (H. pylori [1]; resistant strains 159, 161, 162, 163, 286, 287, 289, and 290, bacterial count 1×10^6 CFU/mL, read-out: MICs): 1 to 16 µg/mL | MIC (H. pylori [1]; strain G27, bacterial count 10^4 CFU/mL, read-out: minimum inhibitory concentration (MIC)): 0.125 µg/mL | MIC (H. pylori [1]; strain G27, bacterial count 10^6 CFU/mL (first line of the strain), read-out: minimum inhibitory concentration (MIC)): 0.5 µg/mL | MIC (H. pylori [1]; strain G27, bacterial count 10^6 CFU/mL (second line of the strain), read-out: minimum inhibitory concentration (MIC)): 0.5 µg/mL | optimal concentration for adding antibiotics (H. pylori [2]; conclusion of breakpoint verification): 4 µg/mL | growth of sensitive strains (H. pylori [2]; levofloxacin 0.5, clarithromycin 0.5, metronidazole 4, amoxicillin 0.5 μg/mL): no sensitive strain grows | growth of bacterial (H. pylori [2]; strain 159, antibiotic 2 μg/mL): + | growth of bacterial (H. pylori [2]; strain 159, antibiotic 4 μg/mL): + | growth of bacterial (H. pylori [2]; strain 159, antibiotic 8 μg/mL): − | growth of bacterial (H. pylori [2]; strain 161, antibiotic 2 μg/mL): + | growth of bacterial (H. pylori [2]; strain 161, antibiotic 4 μg/mL): + | growth of bacterial (H. pylori [2]; strain 161, antibiotic 8 μg/mL): − | growth of bacterial (H. pylori [2]; strain 162, antibiotic 2 μg/mL): + | growth of bacterial (H. pylori [2]; strain 162, antibiotic 4 μg/mL): − | growth of bacterial (H. pylori [2]; strain 162, antibiotic 8 μg/mL): − | growth of bacterial (H. pylori [2]; strain 163, antibiotic 2 μg/mL): + | growth of bacterial (H. pylori [2]; strain 163, antibiotic 4 μg/mL): + | growth of bacterial (H. pylori [2]; strain 163, antibiotic 8 μg/mL): − | growth of bacterial (H. pylori [2]; strain 286, antibiotic 2 μg/mL): + | growth of bacterial (H. pylori [2]; strain 286, antibiotic 4 μg/mL): + | growth of bacterial (H. pylori [2]; strain 286, antibiotic 8 μg/mL): − | growth of bacterial (H. pylori [2]; strain 287, antibiotic 2 μg/mL): + | growth of bacterial (H. pylori [2]; strain 287, antibiotic 4 μg/mL): + | growth of bacterial (H. pylori [2]; strain 287, antibiotic 8 μg/mL): − | growth of bacterial (H. pylori [2]; strain 289, antibiotic 2 μg/mL): + | growth of bacterial (H. pylori [2]; strain 289, antibiotic 4 μg/mL): + | growth of bacterial (H. pylori [2]; strain 289, antibiotic 8 μg/mL): − | growth of bacterial (H. pylori [2]; strain 290, antibiotic 2 μg/mL): + | growth of bacterial (H. pylori [2]; strain 290, antibiotic 4 μg/mL): + | growth of bacterial (H. pylori [2]; strain 290, antibiotic 8 μg/mL): + | growth of bacterial (H. pylori [2]; strain 26695, antibiotic 2 μg/mL): + | growth of bacterial (H. pylori [2]; strain 26695, antibiotic 4 μg/mL): − | growth of bacterial (H. pylori [2]; strain 26695, antibiotic 8 μg/mL): − | growth of bacterial (H. pylori [2]; strain G27, antibiotic 2 μg/mL): + | growth of bacterial (H. pylori [2]; strain G27, antibiotic 4 μg/mL): − | growth of bacterial (H. pylori [2]; strain G27, antibiotic 8 μg/mL): − | MIC ([3]; clinical strain FY-31): 1 µg/mL | MIC ([3]; clinical strain FY-43): 0.5 µg/mL | MIC ([3]; clinical strain FY-47): 16 µg/mL | MIC ([3]; clinical strain FY-52): 1 µg/mL | resistance breakpoints of H. pylori according to CLSI guidelines (H. pylori [4]): 8 µg/mL | drug resistance determined by discoloration of characteristic culture medium (H. pylori [5]; strain 159, 1×10^6 CFU/mL): developed resistance | drug resistance determined by discoloration of characteristic culture medium (H. pylori [5]; strain 286, 1×10^6 CFU/mL): have developed resistance | drug resistance determined by discoloration of characteristic culture medium (H. pylori [5]; strain 287, 1×10^6 CFU/mL): have developed resistance | drug resistance determined by discoloration of characteristic culture medium (H. pylori [5]; strain 289, 1×10^6 CFU/mL): have developed resistance | drug resistance determined by discoloration of characteristic culture medium (H. pylori [5]; strain G27, 1×10^6 CFU/mL): does not develop resistance
